In general, IC50 refers to the concentration that gives 50% inhibition.

Drawing on article PMC10819570, “Design, Synthesis, and Biological Evaluation of 2-Substituted Aniline Pyrimidine Derivatives as Potent Dual Mer/c-Met Inhibitors” (Molecules, 2024), this text covers IC50, microsomal CLint and half-life for 24 compounds.

Data set [1] deals with HepG2 cells. The data set can be described thus: Antiproliferation assay (CCK-8), HepG2. It counts as cell-based. The settings on record: Homo sapiens, HepG2; CCK-8, 72 h; read-out: IC50 antiproliferative HepG2. On the procedure:
(§1) The antiproliferative activities of the compounds against HepG2, MDA-MB-231, and HCT116 cell lines were tested by the standard CCK-8 method. Cell viability was measured by Cell Counting Kit-8 (Meilunbio, Dalian, China) according to the manufacturer’s instructions. Briefly, cancer cells were seeded into 96-well plates at a density of 2.5 × 10^3 cells per well. […] Subsequently, CCK-8 solution was added into each well and incubated for an additional 2 h. The absorbance at 450 nm was determined in each well using the BioTek Synergy HTX microplate reader. The assay was performed in triplicate, and each experiment was repeated three times.

The subject of data set [2] is HCT116 cells. The data set can be described thus: Antiproliferation assay (CCK-8), HCT116. The settings on record: Homo sapiens, HCT-116; CCK-8, 72 h; read-out: IC50 antiproliferative HCT116. The format is cell-based. On the procedure:
Cell viability was measured by Cell Counting Kit-8 (Meilunbio, Dalian, China) according to the manufacturer’s instructions. Briefly, cancer cells were seeded into 96-well plates at a density of 2.5 × 10^3 cells per well. […] Subsequently, CCK-8 solution was added into each well and incubated for an additional 2 h. The absorbance at 450 nm was determined in each well using the BioTek Synergy HTX microplate reader. The assay was performed in triplicate, and each experiment was repeated three times.

Data set [3] has as its system MDA-MB-231 cells. The data set is described as follows: Antiproliferation assay (CCK-8), MDA-MB-231. It counts as cell-based. Particulars: Homo sapiens, MDA-MB-231; CCK-8, 72 h; read-out: IC50 antiproliferative MDA-MB0231. On the procedure:
as §1

Data set [4] addresses c-Met kinase (Homo sapiens, UniProt P08581). The data set can be described thus: c-Met kinase inhibitory activity assay (in vitro). The format is biochemical. The settings on record: ATP 30 uM, enzyme 0.25 nM; means from three independent experiments. The method, then:
(§2) The in vitro inhibition assays of all final compounds against Mer and c-Met kinase were performed by Shanghai Bioduro Biological Technology Co., Ltd. (Shanghai, China). We prepared 1× buffer: HEPES 50 mM, MgCl2 10 mM, EGTA 1 mM, NP-40 0.0001%, DTT 2 mM; compound dilution with DMSO. For test compounds, a 100 × final concentration solution was prepared. About 100 nL compounds were transferred to a 384-well plate by using the automated liquid handler. The final DMSO% in the assay is 1%. Enzyme stock solutions were diluted with 1× assay buffer to a concentration of 0.5 nM to make a 2× working solution. […] Substrate solutions were diluted with 1× assay buffer. About 5 μL mix or buffer was added manually to the assay plate (ATP final 30 uM and TK-Sub-Biotin final 2 uM) using a multichannel pipette, spun down at 1000 rpm, and centrifuged for 30 s. After incubating at 30 °C for 60 min, 10 μL of detection solution was added to each well of the assay, mixed briefly with a centrifuge, and equilibrated for another 60 min. The luminescence was recorded using Envision.

The target in data set [5] is T1, Mer kinase (Homo sapiens, UniProt Q12866).
T1 sequence (Q12866 21-999): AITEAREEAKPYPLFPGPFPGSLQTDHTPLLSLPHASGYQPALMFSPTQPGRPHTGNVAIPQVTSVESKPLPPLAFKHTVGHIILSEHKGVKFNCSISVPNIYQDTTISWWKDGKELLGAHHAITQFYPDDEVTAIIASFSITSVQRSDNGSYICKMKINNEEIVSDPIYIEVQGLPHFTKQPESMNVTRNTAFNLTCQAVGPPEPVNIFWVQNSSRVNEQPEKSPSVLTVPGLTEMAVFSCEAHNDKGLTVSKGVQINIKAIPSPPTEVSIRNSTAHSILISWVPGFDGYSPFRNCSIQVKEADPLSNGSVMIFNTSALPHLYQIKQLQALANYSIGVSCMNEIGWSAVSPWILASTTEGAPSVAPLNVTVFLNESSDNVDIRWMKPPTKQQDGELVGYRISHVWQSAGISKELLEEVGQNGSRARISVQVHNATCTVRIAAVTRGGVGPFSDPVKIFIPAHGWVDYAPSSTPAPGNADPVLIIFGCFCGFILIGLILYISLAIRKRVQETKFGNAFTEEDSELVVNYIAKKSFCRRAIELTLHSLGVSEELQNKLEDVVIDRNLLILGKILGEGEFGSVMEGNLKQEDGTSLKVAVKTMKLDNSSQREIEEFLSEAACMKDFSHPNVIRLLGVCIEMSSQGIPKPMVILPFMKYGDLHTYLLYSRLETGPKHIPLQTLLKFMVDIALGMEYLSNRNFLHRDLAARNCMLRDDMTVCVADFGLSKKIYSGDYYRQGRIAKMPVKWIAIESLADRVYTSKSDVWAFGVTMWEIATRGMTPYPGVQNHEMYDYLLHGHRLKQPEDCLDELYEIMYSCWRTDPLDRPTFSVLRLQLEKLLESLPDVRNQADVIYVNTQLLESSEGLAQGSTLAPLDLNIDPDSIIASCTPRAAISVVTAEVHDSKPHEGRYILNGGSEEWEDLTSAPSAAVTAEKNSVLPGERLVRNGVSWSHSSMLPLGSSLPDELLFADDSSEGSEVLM
The data set is described as follows: Mer kinase inhibitory activity assay (in vitro). Particulars: ATP 30 uM, enzyme 0.25 nM; means from three independent experiments. It counts as biochemical. The method, then:
as §2

Data set [6] is described as follows: Liver microsome stability assay. It counts as in vitro ADME. The settings on record: pH 7.4, human liver microsomes 0.2 mg/mL, test compound 1 μM, NADPH; for microsomal CLint at 1 μM: read-out: CL Human; for half-life at 1 μM: read-out: T1/2 Human. The method, then: Stock solution (10 mM) of each of test compound was prepared in DMSO. The stock solution for each compound was then diluted into 200 μM with acetonitrile. Incubation mixtures were prepared in a total volume of 200 μL with final component concentrations as follows: 0.1 M PBS (pH 7.4), NADPH (2 mM), liver microsomes (0.2 mg/mL), and test compound (1 μM) or positive control. NAPDH was added after a 5 min preincubation of all other components at 37 °C, then pipette-mixed to achieve a homogenous suspension and immediately transferred 20 μL of the incubate as a 0 min sample to wells in a “Quenching” plate, followed by pipette-mixing. At 5, 15, 30, and 60 min, we pipette-mixed the incubate and serially transferred samples of 20 μL of the incubate per time point to wells in a separate “Quenching” plate, followed by pipette-mixing. In “Quenching” plates, 200 μL of acetonitrile was added with IS. The 96 wells were centrifuged at 4000 rpm for 10 min. Then 50 μL of supernatant was mixed with 50 μL of ddH2O and injected into the LC-MS/MS system for analysis.

“And” between values parts separate entries of the source, which are not always exact repeats. Identical values can stand only once.

Sequence of c-Met kinase (P08581 25-1390): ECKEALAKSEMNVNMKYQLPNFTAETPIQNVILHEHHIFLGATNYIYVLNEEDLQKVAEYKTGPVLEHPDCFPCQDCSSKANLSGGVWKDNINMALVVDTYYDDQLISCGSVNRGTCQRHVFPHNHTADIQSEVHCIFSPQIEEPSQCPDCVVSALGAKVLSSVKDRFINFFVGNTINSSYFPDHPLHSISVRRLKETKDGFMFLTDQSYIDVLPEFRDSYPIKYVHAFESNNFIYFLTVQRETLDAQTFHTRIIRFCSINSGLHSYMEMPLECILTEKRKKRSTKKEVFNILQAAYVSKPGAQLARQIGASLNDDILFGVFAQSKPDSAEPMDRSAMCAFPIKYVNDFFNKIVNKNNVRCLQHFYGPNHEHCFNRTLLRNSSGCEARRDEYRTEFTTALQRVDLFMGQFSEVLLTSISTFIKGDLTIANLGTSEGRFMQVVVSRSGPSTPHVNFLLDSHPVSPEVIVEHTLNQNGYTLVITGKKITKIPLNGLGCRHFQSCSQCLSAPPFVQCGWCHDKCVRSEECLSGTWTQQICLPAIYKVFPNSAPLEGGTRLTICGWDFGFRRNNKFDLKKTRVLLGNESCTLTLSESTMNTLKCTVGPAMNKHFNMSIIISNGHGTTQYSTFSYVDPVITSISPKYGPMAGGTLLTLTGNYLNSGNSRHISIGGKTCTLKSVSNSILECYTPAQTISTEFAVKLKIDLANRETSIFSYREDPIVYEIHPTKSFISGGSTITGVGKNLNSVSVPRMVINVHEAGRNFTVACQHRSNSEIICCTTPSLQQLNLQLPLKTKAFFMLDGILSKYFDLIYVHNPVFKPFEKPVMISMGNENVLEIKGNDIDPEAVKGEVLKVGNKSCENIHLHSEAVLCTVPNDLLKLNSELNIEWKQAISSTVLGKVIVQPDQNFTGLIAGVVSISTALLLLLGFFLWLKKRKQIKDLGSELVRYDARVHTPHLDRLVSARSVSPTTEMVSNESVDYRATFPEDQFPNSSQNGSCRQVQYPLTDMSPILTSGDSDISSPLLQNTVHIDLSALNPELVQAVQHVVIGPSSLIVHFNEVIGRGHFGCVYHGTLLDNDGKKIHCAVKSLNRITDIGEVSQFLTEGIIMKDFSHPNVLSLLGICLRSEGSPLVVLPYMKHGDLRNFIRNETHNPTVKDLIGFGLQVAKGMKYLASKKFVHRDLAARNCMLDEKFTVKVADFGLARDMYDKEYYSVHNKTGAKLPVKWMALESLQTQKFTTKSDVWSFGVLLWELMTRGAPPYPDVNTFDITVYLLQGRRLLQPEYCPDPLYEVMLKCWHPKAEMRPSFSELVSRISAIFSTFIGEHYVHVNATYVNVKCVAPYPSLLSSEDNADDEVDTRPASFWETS

Turning to `COc1cc2nccc(Oc3ccc(NC(=O)C4(C(=O)Nc5ccc(F)cc5)CC4)cc3)c2cc1OC` [Cabozantinib, reference compound], the IC50 is 1720 nM in data set [1], 7820 nM in data set [2] and 29000 nM in data set [3].
For `Cc1c(C(=O)Nc2ccc(Oc3ccnc(Nc4ccc(C(=O)NCCCN5CCOCC5)cc4)n3)cc2)c(=O)n(-c2ccccc2)n1C` [Compound 14a], the IC50 is 151 ± 22.6 nM in data set [4]; 8.1 nM and 7.9 nM in data set [5].
For the compound `Cc1c(C(=O)Nc2ccc(Oc3ccnc(Nc4ccc(NC(=O)CN5CCN(C)CC5)cc4)n3)cc2)c(=O)n(-c2ccccc2)n1C` [Compound 14b], the IC50 was 179 ± 25.2 nM in data set [4]; 9.6 nM and 9.4 nM in data set [5].
Regarding `Cc1c(C(=O)Nc2ccc(Oc3ccnc(Nc4ccc(NS(=O)(=O)c5ccccc5)cc4)n3)cc2)c(=O)n(-c2ccccc2)n1C` [Compound 14c], the IC50 in data set [4] is more than 1000 nM; in data set [5], 166 ± 21.6 nM.
The corresponding values for `Cc1c(C(=O)Nc2ccc(Oc3ccnc(Nc4cccc(NC(=O)CN5CCN(C)CC5)c4)n3)cc2)c(=O)n(-c2ccccc2)n1C` [Compound 14d] are 144 ± 17.3 nM and 24.2 ± 2.6 nM.
As to `Cc1c(C(=O)Nc2ccc(Oc3ccnc(Nc4cccc(C(=O)NCCCN5CCOCC5)c4)n3)cc2)c(=O)n(-c2ccccc2)n1C` [Compound 14e], the IC50 in data set [4] was 321 ± 25.6 nM; in data set [5], 40.3 ± 3.6 nM.
Consider `Cc1c(C(=O)Nc2ccc(Oc3ccnc(Nc4ccc(NC(=O)CN5CCN(C)CC5)c(C#N)c4)n3)cc2)c(=O)n(-c2ccccc2)n1C` [Compound 14g], for which the results for the IC50 in data set [4] and in data set [5] were 89.4 ± 12.6 nM and 7.1 ± 0.9 nM, respectively.
The corresponding values for `Cc1c(C(=O)Nc2ccc(Oc3ccnc(Nc4ccc(NC(=O)CN5CCN(C)CC5)c(F)c4)n3)cc2)c(=O)n(-c2ccccc2)n1C` [Compound 14h] are 74.9 ± 12.2 nM and 12.5 ± 2 nM.
For `Cc1c(C(=O)Nc2ccc(Oc3ccnc(Nc4ccc(N(C)C(=O)CN5CCN(C)CC5)cc4)n3)cc2)c(=O)n(-c2ccccc2)n1C` [Compound 14i], the figures for the IC50 in data set [4] and in data set [5] were 224 ± 24.6 nM and 97.1 ± 12.7 nM, respectively.
The corresponding values for `CC(=O)N1CCN(c2ccc(Nc3nccc(Oc4ccc(NC(=O)C5(C(=O)Nc6ccc(F)cc6)CC5)cc4)n3)cc2)CC1` [Compound 18a] are 15.4 ± 1.4 nM and 85.3 ± 6.8 nM.
The corresponding values for `O=C(Nc1ccc(F)cc1)C1(C(=O)Nc2ccc(Oc3ccnc(Nc4ccc(NS(=O)(=O)c5ccccc5)cc4)n3)cc2)CC1` [Compound 18b] are 941 ± 65.9 nM and more than 10000 nM.
The corresponding values for `O=C(NCCCN1CCOCC1)c1ccc(Nc2nccc(Oc3ccc(NC(=O)C4(C(=O)Nc5ccc(F)cc5)CC4)cc3)n2)cc1` [Compound 18d] are 52.7 ± 8.5 nM and 42.4 ± 5.8 nM.
For the compound `COCCNc1ccc(Nc2nccc(Oc3ccc(NC(=O)C4(C(=O)Nc5ccc(F)cc5)CC4)cc3)n2)cc1` [Compound 18e], the IC50 in data set [4] amounted to 77.3 ± 13.1 nM; in data set [5], 159 ± 17.4 nM.
The corresponding values for `O=C(Nc1ccc(F)cc1)C1(C(=O)Nc2ccc(Oc3ccnc(Nc4ccc(CCC(O)c5ccccc5)cc4)n3)cc2)CC1` (stereo not drawn) [Compound 18f] are more than 1000 nM and 463 ± 55.4 nM.
Turning to `CCN1CCN(CC(=O)Nc2ccc(Nc3nccc(Oc4ccc(NC(=O)C5(C(=O)Nc6ccc(F)cc6)CC5)cc4)n3)cc2)CC1` [Compound 18g], the IC50 was determined as 48.7 ± 8.7 nM in data set [4] and 20.3 ± 3.2 nM in data set [5].
The corresponding values for `CC(C)N1CCN(CC(=O)Nc2ccc(Nc3nccc(Oc4ccc(NC(=O)C5(C(=O)Nc6ccc(F)cc6)CC5)cc4)n3)cc2)CC1` [Compound 18h] are 42.6 ± 8.1 nM and 12.4 ± 1.9 nM.
The corresponding values for `O=C(CN1CCN(CC2CC2)CC1)Nc1ccc(Nc2nccc(Oc3ccc(NC(=O)C4(C(=O)Nc5ccc(F)cc5)CC4)cc3)n2)cc1` [Compound 18i] are 77.1 ± 15.2 nM and 30.9 ± 5.3 nM.
Take `CC(=O)N1CCN(CC(=O)Nc2ccc(Nc3nccc(Oc4ccc(NC(=O)C5(C(=O)Nc6ccc(F)cc6)CC5)cc4)n3)cc2)CC1` [Compound 18j]: the IC50 in data set [4] was 32.8 ± 5.8 nM; in data set [5], 57.5 ± 9.4 nM.
In the case of `CN1CCN(CC(=O)Nc2ccc(Nc3nccc(Oc4ccc(NC(=O)C5(C(=O)Nc6ccc(F)cc6)CC5)cc4)n3)cc2C#N)CC1` [Compound 18k], the IC50 in data set [4] is 51.2 ± 8 nM; in data set [5] it was 10.2 ± 1.4 nM.
In the case of `CN1CCN(CC(=O)Nc2ccc(Nc3nccc(Oc4ccc(NC(=O)C5(C(=O)Nc6ccc(F)cc6)CC5)cc4)n3)cc2F)CC1` [Compound 18l], the IC50 in data set [4] was determined as 48.7 ± 8.2 nM. In addition, in data set [6], the microsomal CLint at 1 μM is 360 µL/min/mg and the half-life at 1 μM turned out to be 9.6 min. This compound gave an IC50 in data set [5] of 18.3 ± 2.7 nM.
As for `CN1CCN(CC(=O)N(C)c2ccc(Nc3nccc(Oc4ccc(NC(=O)C5(C(=O)Nc6ccc(F)cc6)CC5)cc4)n3)cc2)CC1` [Compound 18m], the IC50 came to 74.4 ± 13.5 nM in data set [4] and 126 ± 17.8 nM in data set [5].
For the compound `CC(C(=O)Nc1ccc(Nc2nccc(Oc3ccc(NC(=O)C4(C(=O)Nc5ccc(F)cc5)CC4)cc3)n2)cc1)N1CCN(C)CC1` (stereo not drawn) [Compound 18n], the IC50 is 30.7 ± 4.8 nM in data set [4] and 31.6 ± 5.4 nM in data set [5]. Also, the microsomal CLint at 1 μM in data set [6] is 290 µL/min/mg. The half-life at 1 μM in data set [6] worked out at 11.9 min.
As to `CN1CCN(CC(=O)Nc2cccc(Nc3nccc(Oc4ccc(NC(=O)C5(C(=O)Nc6ccc(F)cc6)CC5)cc4)n3)c2)CC1` [Compound 18o], half-maximal inhibition in data set [4] (IC50) required 39.8 ± 6.6 nM. For the same compound, in data set [6], the microsomal CLint at 1 μM came to 400 µL/min/mg and the half-life at 1 μM turned out to be 8.6 min. In data set [5], this compound gave an IC50 of 24.8 ± 3.3 nM.
As to `C[C@]12CC[C@H]3[C@@H](CCC4=CC(=O)CC[C@@]43C)[C@@H]1CC[C@@H]2O` [Testosterone, reference compound], the half-life at 1 μM in data set [6] is 32.1 min.
